Data reported in patent US9102648B1, “Bioavailable diacylhydrazine ligands for modulating the expression of exogenous genes via an ecdysone receptor complex” (Intrexon Corporation, priority 2003, dated 2015).
Converted amounts (≈) assume the structure as drawn. Like-named read-outs stand apart in the source and are kept apart here.

Columns and labels:
[1] = tested on: mutated ecdysone receptor-based gene switch; assay: In vivo SEAP induction, ligand by IP injection; set-up: species or system C57BL/6 mouse; details: for Secreted Alkaline Phosphatase (percentage of GS ™-E ligand induction) Day 2 / Secreted Alkaline Phosphatase (percentage of GS ™-E ligand induction) Day 3 / Secreted Alkaline Phosphatase (percentage of GS ™-E ligand induction) Day 11: mouse serum; for Secreted Alkaline Phosphatase (percentage of GS ™-E ligand induction) Day 2: IP 2.6 μmol ligand 3 days after electroporation, day 2 after ligand; for Secreted Alkaline Phosphatase (percentage of GS ™-E ligand induction) Day 3 / Secreted Alkaline Phosphatase (percentage of GS ™-E ligand induction) Day 11: IP 2.6 μmol ligand; for Secreted Alkaline Phosphatase (percentage of GS ™-E ligand induction) Day 3: day 3 after ligand; for Secreted Alkaline Phosphatase (percentage of GS ™-E ligand induction) Day 11: day 11 after ligand; for Secreted Alkaline Phosphatase Day 2 / Secreted Alkaline Phosphatase Day 3 / Secreted Alkaline Phosphatase Day 7: IP 26 nmol ligand
Description: Applicants' ligands are useful in various applications including gene therapy, expression of proteins of interest in host cells, production of transgenic organisms, and cell-based assays. In vivo induction of a reporter enzyme with various ligands of the present invention was evaluated in a C57BL/6 mouse model system containing a gene switch.
Each element of the gene switch was on a separate plasmid. Receptor expression was under the control of a CMV promoter (SEQ ID NO: 15). Induction was evaluated by the amount of reporter protein expressed in the presence of ligand.
SEAP expression in serum of mice was evaluated after electroporation of the gene switch into mouse quadriceps. Mice were anesthetized with 2 μL/g of a mixture of ketamine (100 mg/mL) and xylazine (20 mg/mL). Animals were then shaved, DNA vectors injected into the muscle in a volume of 2×50 μL polyglutamic acid (12 mg/mL water), electrode conductivity gel applied, and an electrode caliber (1 cm×1 cm; model 384) was placed on hind leg. The muscle was electroporated with 200 V/cm, 8 times, for 20 msec/pulse, at 1 sec time intervals. The transverse electrical field direction was reversed after the animals received half of the pulses. Electroporation was performed with an ECM 830 electroporator from BTX Molecular Delivery Systems.
In some experiments mice received an intraperitoneal injection (IP) of 2.6 μmol of ligand in 50 μL of DMSO 3 days after electroporation of the gene switch. In other experiments the concentration of ligand was decrease to 26 nmol/50 μL of DMSO/mouse. SEAP expression was evaluated 2-11 days after ligand administration. In other experiments ligand was administered in rodent chow. The chow was prepared by dissolving 2 g of ligand in 20 mL of acetone and adding it to 1 kg of LabDiet 5010 autoclavable chow from Purina Mills. This was thoroughly mixed in a Hobart mixer and then mixed for an additional 15 min in a Cross Blend mixer. Animals received chow ad libitum for 1, 2, or 3 days. All values are the average from four animals. Background SEAP in sera from animals treated with vector alone without ligand addition was 0-11 ng/mL serum.
Mouse serum was obtained by centrifugation of blood acquired by retroorbital bleeding with a small glass capillary tube. SEAP quantification was determined using a Clontech Great Escape chemiluminescence kit and by comparison with the Clontech SEAP standard.
Table 9: In vivo evaluation of ligand-mediated induction of a mutated ecdysone receptor-based gene switch. SEAP expression in serum of mice was evaluated after electroporation of the gene expression cassettes into mouse quadriceps. Mice received an IP injection of 2.6 μmol of ligand 3 days after electroporation. SEAP expression was evaluated 2-11 days after ligand administration. Each dose group was composed of four animals. Percentage of GS™-E ligand induction was determined by averaging SEAP expression from four animals divided by the average SEAP expression induced with GS™-E ligand and then multiplying by 100.
Table 10: Induction of gene switch expression with low concentrations of ligand. SEAP expression in serum of mice was evaluated after electroporation of the gene expression cassettes into mouse quadriceps. Mice received an IP injection of 26 nmol of ligand or 130 nmol GS™-E ligand 3 days after electroporation. SEAP expression was evaluated 2-7 days after ligand administration. Values are the average from 4 animals.

[2] = molecular target: GAL4 DBD (1-147)-CfEcR(DEF)/VP16AD-βRXREF-LmUSPEF (Choristoneura fumiferana, UniProt O77240); assay: cell-based; details: for 27-63 assay Rel Max FI: maximum fold induction at any concentration relative to that of GS-E ligand, CHO 27-63 cells; for fold induction at 3.3 µM: read-out: Fold Induction, 27-63 Assay, 3.3 uM; for fold induction at 33 µM: read-out: Fold Induction, 27-63 Assay, 33 uM; for Fold Induction, 27-63 Assay, 3.3 uM: 3.3 uM ligand; for Fold Induction, 27-63 Assay, 3.3 uM / Fold Induction, 27-63 Assay, 33 uM: RLU ligand treated / RLU DMSO treated cells; for Fold Induction, 27-63 Assay, 33 uM: 33 uM ligand
[3] = Determination of LC Log P (experimental); format: physicochemical; details: for logP: diacylhydrazine log P standards (log P known experimentally)
Description: Liquid chromatography retention times (RT) are measured for each substance using the conditions described below. A linear equation is derived relating RT to log P is developed from the data for the log P standards. The log P for the test compound is calculated from the log P/retention time equation.

[4] = Determination of water solubility (de-ionized water, LC/MS); details: kinetic from dmso stock
Description: Aqueous solutions are prepared as follows in triplicate: 50 μl of a 10,000 ppm solution (2,000 μg of solid dissolved in 200 μl of methanol) of the substrate in methanol or DMSO is added to 1 mL of de-ionized water in a 2 dram or smaller vial with magnetic stirring. Stirring is continued overnight at ambient temperature. The slurry is taken up into a syringe with a luer tip. The contents are passed through a new 13 mm 0.2 ρM Acrodisc filter (tuffryn or glass fiber) into an autosampler bottle. For preparation of calibration standard solutions: dilutions of the 10,000 ppm solution were prepared at 10, 5, 1, 0.5, and 0.2 ppm. […] For more soluble materials, dilution of the samples into this range is preferable to increasing the calibration range because the non-linearity of the response results in less useful calibration curves. However a shift in the range of calibration standards is required for very insoluble compounds.
Chromatography of the samples was then preformed. For most diacylhydrazines the following conditions were adequate for the measurement. Other columns and gradients may be substituted as appropriate.
Analysis of the test samples is conducted as follows: Each solubility replicate is analyzed in duplicate. […] Standard curves are obtained from duplicate injections of the standards. The concentration of the substrate is determined by calculation from the equation relating concentration and response.

[5] = from LC retention time against log P standards, read-out: LC LogP (exp)
[6] = read-out: 27-63 assay EC50, CHO 27-63 stable cell line, luciferase reporter, average of two wells

Structure (SMILES)	Secreted Alkaline Phosphatase (percentage of GS ™-E ligand induction) Day 2 [1]	Secreted Alkaline Phosphatase (percentage of GS ™-E ligand induction) Day 3 [1]	EC50 [2]	27-63 assay Rel Max FI [2]	fold induction at 3.3 µM [2]	fold induction at 33 µM [2]	chromatographic logP [3, 5]	logP [3]	Secreted Alkaline Phosphatase (percentage of GS ™-E ligand induction) Day 11 [1]	LC LogP (exp) ([3]; from LC retention time against log P standards)	Fold Induction, 27-63 Assay, 3.3 uM ([2]; average of two wells)	Fold Induction, 27-63 Assay, 33 uM ([2]; average of two wells)	EC50 [2, 6]	Secreted Alkaline Phosphatase Day 2 [1]	Secreted Alkaline Phosphatase Day 3 [1]	Secreted Alkaline Phosphatase Day 7 [1]	chromatographic logP [3]	solubility kinetic [4]
CCc1c(C(=O)NN(C(=O)c2cc(C)cc(Cl)c2)C(C)(C)C)ccc2c1OCCO2 [RG-101494, N-(5-ethyl-1,4-benzodioxan-6-carbonyl)-N′-(tert-butyl)-N′-(3-chloro-5-methylbenzoyl)hydrazine]	136 percentage of GS ™-E ligand induction	138 percentage of GS ™-E ligand induction	36 nM	0.916	717	294	4.3											
COc1cccc(C(=O)NN(C(=O)c2cc(C)cc(C)c2)C(C)(C)C)c1C [RG-102398]			325 nM	1.017	2880	3180		3.7										
COc1cccc(C(=O)NN(C(=O)c2cc(Cl)c(F)c(Cl)c2)C(C)(C)C)c1C [RG-101382, N-(3-methoxy-2-methylbenzoyl)-N′-(3,5-dichloro-4-fluorobenzoyl)-N′-tert-butylhydrazine]	92 percentage of GS ™-E ligand induction	81 percentage of GS ™-E ligand induction	306 nM	1.188	2700	2570	4.4		890 percentage of GS ™-E ligand induction									
CCCC(N(NC(=O)c1cccc(OC)c1CC)C(=O)c1cc(OC)c(C)c(OC)c1)C(C)(C)C (stereo not drawn) [RG-115829, 3,5-Dimethoxy-4-methyl-benzoic acid N-(1-tert-butyl-butyl)-N′-(2-ethyl-3-methoxy-benzoyl)-hydrazide]	72 percentage of GS ™-E ligand induction	83 percentage of GS ™-E ligand induction	35 nM	1.264	2600	45			687 percentage of GS ™-E ligand induction									
CCc1c(OC)cccc1C(=O)NN(C(=O)c1cc(C)cc(C=NNC(=O)C(N)=O)c1)C(C)(C)C [RG-115613, oxamic hydrazone of N-(3-formyl-5-methyl-benzoyl)-N-tert-butyl-N′-(2-ethyl-3-methoxy-benzoyl) hydrazide]	2 percentage of GS ™-E ligand induction	1 percentage of GS ™-E ligand induction								2.8								
CCCC(N(NC(=O)c1cccc(OC)c1C)C(=O)c1cc(OC)c(C)c(OC)c1)C(C)(C)C (stereo not drawn) [RG-115824]	102 percentage of GS ™-E ligand induction	101 percentage of GS ™-E ligand induction		1.218					415 percentage of GS ™-E ligand induction		2675	948	36 nM					
CCCC(N(NC(=O)c1cccc(OC)c1CC)C(=O)c1cc(C)cc(C)c1)C(C)(C)C (stereo not drawn) [RG-115830]	120 percentage of GS ™-E ligand induction	158 percentage of GS ™-E ligand induction		1.049					3,558 percentage of GS ™-E ligand induction		2287	353	36 nM	6,835 ng/ml mouse sera	5,339 ng/ml mouse sera	590 ng/ml mouse sera		
COc1cc(C(=O)N(NC(=O)c2ccc3c(c2C)OCCO3)C(C)(C)C#N)cc(OC)c1C [RG-115092, N-(5-methyl-1,4-benzodioxan-6-carbonyl)-N′-(2-cyano-2-propyl)-N′-(3,5-dimethoxy-4-methylbenzoyl)hydrazine]	8 percentage of GS ™-E ligand induction	2 percentage of GS ™-E ligand induction	213 nM	1.092	2870	3110	3.5											
Cc1cc(C)cc(C(=O)N(NC(=O)c2ccc3c(c2C)OCCO3)C(C)(C)C)c1 [RG-102317, N-(5-methyl-1,4-benzodioxan-6-carbonyl)-N′-(tert-butyl)-N′-(3,5-dimethylbenzoyl)hydrazine]	112 percentage of GS ™-E ligand induction	116 percentage of GS ™-E ligand induction	102 nM	0.948	2550	2500			61 percentage of GS ™-E ligand induction								3.6	
CCC(N(NC(=O)c1cccc(OC)c1C)C(=O)c1cc(OC)c(C)c(OC)c1)C(C)(C)C (stereo not drawn) [RG-115820, 3,5-dimethoxy-4-methyl-benzoic acid N-(1-ethyl-2,2-dimethyl-propyl)-N′-(3-methoxy-2-methyl-benzoyl)-hydrazide]	82 percentage of GS ™-E ligand induction	63 percentage of GS ™-E ligand induction	193 nM	1.270	2860	1970			399 percentage of GS ™-E ligand induction									
CCC(N(NC(=O)c1cccc(C)c1C)C(=O)c1cc(C)cc(C)c1)C(C)(C)C (stereo not drawn) [RG-103309, 3,5-dimethyl-benzoic acid N′-(2,3-dimethyl-benzoyl)-N-(1-ethyl-2,2-dimethyl-propyl)-hydrazide]	251 percentage of GS ™-E ligand induction	298 percentage of GS ™-E ligand induction	3020 nM	0.975	2540	1200								3,428 ng/ml mouse sera	2,800 ng/ml mouse sera	143 ng/ml mouse sera		2.9 µM (≈ 1.14 µg/mL)
CC(C)(C)N(NC(=O)c1ccc(Cl)cc1)C(=O)c1ccccc1 [RG-100864]			17300 nM	0.716	1	1180		3.2										
